The subject of assay [1] is TlpALBD. In words: Small-molecule ligand binding array. Also: key: + for positive binding; +/− for intermediate binding; − for no binding. Set-up: species or system Helicobacter pylori SS1. The following applies: ligand binding array screen; n = 3. How it is done:
Small-molecule arrays were prepared and performed as previously described ([57]). Briefly, 1 μg of purified TlpALBD in phosphate-buffered saline (PBS) (pH 7.2) was incubated with a molar concentration ratio (4:2:1) of anti-His antibody (Cell Signaling), followed by incubation with a secondary antibody (Thermo Scientific) for signal amplification. The protein-antibody mix was added to an Arrayit Superepoxy III glass substrate array blocked with PBS (pH 7.2) with 1% bovine serum albumin. […] Unbound protein was washed away with PBS with 0.05% Tween. […] Three biological replicates were performed, with a total of 12 data points for each glycan tested. Binding was classified as positive for a ligand if the relative fluorescence unit value was >1-fold above the mean background (defined as the average background of negative-control spots plus 3 standard deviations [SD]) and was statistically significant (P < 0.005 by Student’s t test). Small-molecule array slide preparation and analysis were done according to MIRAGE guidelines ([58]) (outlined in Table S5).
Classification Guidelines
1. Sample: Glycan Binding Sample
Origin: Helico bact er pyl ori SS1; produce d as a reco mbinant His -tagged protein in E.
The preparation of TlpA is exp lained in the Materials and Methods se ct ion: TlpA co nst ruct desi gn and protein purifica tion.
Sample Sample is a His Tagged protein co ntaining only the periplasm ic rece ptor domain, amino […]
Please see Materials and Methods: Li ga nd bi ndi ng arra y.
Proteins were co mplexe d with mouse anti-his antibody, with se co ndary and tertiary Alexa Fluor555 antibodies (rabbit anti-mouse , goat anti-rabbit) at a molar ratio of 4:2:1.
The protein/antibody co mplex was incu bated on ice for 10 mins prior to placi ng on the Assa y array. Arrays were performed with 1 µg of co mplexe d protein incu bated on the array for protoco l 20 min. Arrays were then wash ed 3 times in Array PBS (PBS + 2 mM MgCl2 + 2 mM CaCl2) then dried by ce ntrifugation for 3 min at 300 x g. Sca nning was performed usi ng an Innopsys InnoSca n 1100AL and analyze d usi ng Mapix (Innopsy s). Yes/ no binding was determined by si x posi tive replica te sp ots in three replica te exp eriments. […]
2.2 Small molecule Library […]
descr iption for Compounds printed in the amino aci d/small molecu le array for this st udy are list ed in […]
5.2 Small molecule array with “Map”
The array co nsi sts of triplica te su b-arrays of amino aci ds and sm all moleucl es (24 rows x 10 co lumns) with 400μm sp ot sp aci ng (ce ntre to ce ntre) with a minimum sp ot si ze of 100μm . Each sa mple is printed si x times, with each of the 3 su b-arrays incl uding at least Array layo ut si x negative co ntrol sa mples (print so lution only) and a posi tive co ntrol sa mples […]
Posi tive co ntrols provi de proof of su cce ssf ul immobiliza tion of the amine reagents and provi des for orientation for analysi s.
Sample Arrays are quality co ntrolled by a range of measu res. 1. Each printed array is post print identifica tion sca nned to co nfirm deposi tion of the sa mples on the array su rface prior to neutraliza tion and quality of the remaining sl ide su rface . 2. Post neutralize d sl ides are sca nned again to monitor co ntrol for remaining autofluoresce nce .
1. 6. Detector and Data Processing
Sca nning reso lution: […]
Sca n powers: Low lase r power. […]
analysi s Innopsys MAPIX.

Assay [2] has as its system H. pylori PMSS1 WT. Description: Temporal chemotaxis assay (live-cell video microscopy, direction changes), WT. It is filed as cell-based, Helicobacter pylori. The following applies: for Chemotactic response (direction changes vs mock): WT, 0.1, 1, 10 mM tested, acidic ligand stocks pH neutralized with NaOH, 10 mM most significant; for Chemotactic response, ligand stock pH not adjusted: acidic in solution, unadjusted pH. The procedure:
H. pylori chemotactic responses toward the seven putative TlpA-dependent ligands were examined by a live-cell video microscopy assay that measures the temporal chemotaxis response to test ligands. […] Acidic conditions are sensed by chemoreceptors other than TlpA ([24], [29], [31]) and potentially mask chemotactic responses to the ligands being tested.
Cultures of H. pylori PMSS1 WT and ΔtlpA strains were grown overnight, back-diluted, and then incubated until an OD600 of 0.12 to 0.15 was reached. Cultures were treated with water (Mock) or various concentrations of compounds, as indicated. […] The cells were immediately filmed, and direction changes were counted over a 3-s swimming period in at least 100 cells per treatment from 3 biological replicates. Data are normalized to the values for the untreated control for each strain, as described in Materials and Methods. Error bars represent the standard errors of the means. *, P < 0.05; **, P < 0.01; ***, P < 0.001 (comparisons to the untreated control per strain using two-way ANOVA with Dunnett’s multiple-comparison test).
Swimming behavior assays were done with H. pylori PMSS1 strains grown in BB10 as described above. Cultures grown overnight were diluted to an optical density at 600 nm (OD600) of 0.1 in fresh BB10 and then incubated with shaking as described above until an OD600 of 0.12 to 0.15 was reached. […] The number of direction changes in a bacterial swimming trajectory was enumerated over a 3-s interval to determine whether each putative ligand is sensed as an attractant or repellent or elicits no response ([20], [25][–][30]). […] Each control is sensed by chemoreceptors other than TlpA ([24], [25], [29], [31]). The pH of BB10 upon treatment was independently assessed using a Denver Instruments pH meter. […] Therefore, to be able to compare the results to those of previous experiments, we continued resuspending acidified ligands in pure water and then adjusting the pH of the resuspended ligand using NaOH. Cultures were filmed immediately after ligand addition at a ×400 magnification using a Hamamatsu C4742-95 digital camera with μManager software (version 1.4.22), mounted on a Nikon Eclipse E600 phase-contrast microscope. For the competition chemotaxis assay, cultures of H. pylori and ligands were prepared as described above. However, 1 min after the addition of a nonchemoactive ligand at a final concentration of 10 mM, a chemoactive ligand was added at a final concentration of 10 mM, and the cultures were then filmed as described above. Videos were relabeled to blind the observer to the strain identity. For each sample, >100 3-s-long bacterial tracks from three independent cultures were analyzed manually to identify stops followed by direction changes. Data for all biological replicates under each condition were combined, and the average number of direction changes in 3 s and the standard error of the mean were calculated. For each strain, data were normalized to the values for the untreated control under each experimental condition. Statistical analysis of the data for treated versus untreated samples was performed using two-way analysis of variance (ANOVA) and Dunnett’s multiple-comparison test.

Counter-ions that a name gives are not always drawn.

As to `N=C(N)NCCC[C@H](N)C(=O)O` [Arginine, L-arginine monohydrochloride], the Array result in assay [1] is on record as “+”. Moreover, the “Chemotactic response (direction changes vs mock)” value in assay [2] is recorded as “fewer direction changes”.
For the compound `N[C@@H](CS)C(=O)O` [Cysteine, L-cysteine hydrochloride monohydrate], the Array result in assay [1] is recorded as “+/−”. Moreover, in assay [2], the “Chemotactic response (direction changes vs mock)” value is given as “fewer direction changes” and the “Chemotactic response, ligand stock pH not adjusted” value was “significant TlpA-independent chemorepellent responses”.
In the case of `O=C(O)/C=C/C(=O)O` [Fumarate, sodium fumarate], the Array result in assay [1] is “+”. In addition, the “Chemotactic response (direction changes vs mock)” value in assay [2] is “fewer direction changes”.
Consider `N[C@H]1C(O)O[C@H](CO)[C@@H](O)[C@@H]1O` (stereo partly drawn) [Glucosamine, D(+)-glucosamine hydrochloride], for which the Array result in assay [1] is reported as “+”. Besides, the “Chemotactic response (direction changes vs mock)” value in assay [2] is listed as “no significant direction changes”.
On to `O=C(O)C[C@H](O)C(=O)O` [Malic acid, L-malic acid], for which, in assay [1], the Array result was “+/−”. In addition, in assay [2], the “Chemotactic response (direction changes vs mock)” value is listed as “no significant direction changes” and the “Chemotactic response, ligand stock pH not adjusted” value is “significant TlpA-independent chemorepellent responses”.
`Cc1ncc(C[n+]2csc(CCO)c2C)c(N)n1` [Thiamine, thiamine hydrochloride]: the Array result in assay [1] is listed as “+/−”. In assay [2], the “Chemotactic response (direction changes vs mock)” value is “no significant direction changes” and the “Chemotactic response, ligand stock pH not adjusted” value is recorded as “significant TlpA-independent chemorepellent responses”.

Values taken from publication PMC8406319, “The dCache Chemoreceptor TlpA of Helicobacter pylori Binds Multiple Attractant and Antagonistic Ligands via Distinct Sites” (mBio, 2021).
